Source: patent publication US7867732B2, “Isolated polypeptide binding to a sugar chain, polynucleotide encoding the polypeptide and use of the polypeptide and polynucleotide” (National University of Corporation Hiroshima University, priority 2005, dated 2011)

How the values were obtained:
[1] = test system: BML-17; test: Hemagglutination-inhibition test with BML-17 and trypsin-treated rabbit erythrocytes; format: cell-based, Bryopsis maxima; settings: for Inhibition of agglutinating activity of BML-17 (in words): TRBC; for Minimum inhibitory concentration: inhibition of BML-17 (agglutination titer 4) agglutination of TRBC
Protocol: Hemagglutinating activity was measured using a micro titer method. Twenty-five μl of serially two-fold dilutions of each purified fraction solution adjusted with saline was placed on a micro titer plate. Each diluted solution was supplemented with 25 μl of a 2% suspension of trypsin-treated rabbit erythrocytes and was gently stirred. The mixture was allowed to stand at room temperature for 1.5 hours and agglutination was observed. Agglutination was evaluated with naked eye. Agglutination of 50% or greater percentage of red blood cells was evaluated as positive. Agglutinating activity was given by agglutination titer, i.e., the protein concentration of maximum diluent showing agglutinating activity.
In this Example, trypsin-treated rabbit red blood cells (TRBC) were used as red blood cells. TRBC was prepared as follows. First, 2 ml of blood was collected from the ear of a rabbit kept in laboratory. The blood sample was washed 3 times with about 50 ml of saline, and was supplemented with 50 ml of saline to obtain a 2% rabbit blood cell suspension. The solution was supplemented with 1/10 volume of 0.5% trypsin in saline, and was allowed to stand at 37° C. for 1.5 hours. The trypsin-treated red blood cells were then washed 3 times with saline, and were supplemented with 45 ml of saline to obtain a 2% suspension of trypsin-treated rabbit erythrocytes (or blood cells) (TRBC).
Hemagglutination-inhibition test was performed according to the following procedure. First, each 25 μl of serially two-fold dilutions of sugar solution in saline was placed on a micro titer plate. The concentration of the original solutions of sugars examined was 100 mM for monosaccharides and oligosaccharides, and 2 mg/ml for glycoproteins. Each solution was mixed with 25 μl of BML-17 solution that had been adjusted to an agglutination titer of 4, and allowed to stand for 1.5 hours at room temperature after gentle stirring. Then, 25 μl of TRBC was added, and the mixture was allowed to stand for 2 hours at room temperature to observe hemagglutination inhibitory capability. The presence or absence of hemagglutination inhibitory capability was determined by naked eye. The test was positive when no hemagglutination occurred in about 100% of the red blood cells.
The hemagglutination inhibition test used D-glucose, D-galactose, D-mannose, N-acetyl-D-glucosamine, N-acetyl-D-galactosamine, D-xylose, L-fucose, fructose, lactose, and raffinose as monosaccharides and oligosaccharides. As glycoproteins, mucin (bovine submaxillary gland) and asialomucin, fetuin (type III, calf serum) and asialofetuin, transferrin (human) and asialotransferrin, α1-acid glycoprotein (human) and alialo-α1-acid glycoprotein, and yeast mannan were used.

[2] = test system: chicken egg yolk antibody (chicken IgY antibody); test: Search for lectins that bind to chicken egg yolk antibody by SPR (Biacore 2000); format: binding; settings: chicken IgY immobilized as ligand
Source text: Assessment was made as to affinity of the different types of lectins and chicken egg yolk antibody (chicken IgY antibody). Briefly, using Biacore 2000 (BIACORE) that employs the principle of surface plasmon resonance method (hereinafter, “SPR method”), chicken egg yolk antibodies (chicken IgY antibodies) were immobilized as ligands on a sensor chip, and measurements were made according to manuals using each type of lectin solution as an analyte. The SPR technique allows for measurement of specific interactions between biomolecules both quickly and quantitatively, without labeling the biomolecules. According to this technique, the ligands are immobilized on a surface of the sensor chip, which is then supplemented with a solution of substance (analyte) that acts on the ligand. Slight changes in mass caused by the binding and dissociation of the molecules are then detected as changes in SPR signals. The mass change is represented by resonance unit (RU). One thousand RU is equivalent to a change in reflection angle of 0.1° caused by resonance, and it means that the analyte has bound to the ligand at 1 ng/mm^2. The surface of the sensor chip is coated with dextran, and the ligands are immobilized primarily via carboxyl groups that have been introduced into the dextran.
Note that, as permitted, the lectins tested as analytes were selected to have different sugar binding specificity. The chicken egg yolk antibody (chicken IgY antibodies) tested as ligands were obtained by purification from egg yolk, using Eggcellent Chicken IgY Purification Kit (Pierce Chem. Co. USA).

[3] = monosaccharides and oligosaccharides

Molecule | Inhibition of agglutinating activity of BML-17 (in words) [1] | Minimum inhibitory concentration ([1]; glycoproteins) | Minimum inhibitory concentration [1, 3] | other results
Mucin | inhibition occurred | 250 µg/mL | – | –
Asialotransferrin: asialo form of transferrin (human) | inhibition occurred | 1000 µg/mL | – | –
O=C[C@H](O)[C@@H](O)[C@H](O)CO [D-Xylose] | – | – | — (No inhibition at 100 mM of mono- or oligosaccharides) | –
CC(=O)N[C@H]1C(O)O[C@H](CO)[C@@H](O)[C@@H]1O (stereo partly drawn) [N-Acetyl-D-glucosamine] | – | – | — (No inhibition at 100 mM of mono- or oligosaccharides) | –
O=C[C@H](O)[C@@H](O)[C@H](O)[C@H](O)CO [D-Glucose] | – | – | — (No inhibition at 100 mM of mono- or oligosaccharides) | –
αl-Acid glycoprotein: α1-acid glycoprotein (human) | – | — (No inhibition at 100 mM of mono- or oligosaccharides, or at 2 mg/ml of glycoproteins) | – | –
CC(=O)N[C@H]1C(O)O[C@H](CO)[C@H](O)[C@@H]1O (stereo partly drawn) [N-Acetyl-D-galactosamine] | – | – | — (No inhibition at 100 mM of mono- or oligosaccharides) | –
O=C(CO)[C@@H](O)[C@H](O)[C@H](O)CO [Fructose] | – | – | — (No inhibition at 100 mM of mono- or oligosaccharides) | –
OC[C@H]1O[C@@H](O[C@H]2[C@H](O)[C@@H](O)C(O)O[C@@H]2CO)[C@H](O)[C@@H](O)[C@H]1O (stereo partly drawn) [Lactose] | – | – | — (No inhibition at 100 mM of mono- or oligosaccharides) | –
OC[C@H]1O[C@H](OC[C@H]2O[C@H](O[C@]3(CO)O[C@H](CO)[C@@H](O)[C@@H]3O)[C@H](O)[C@@H](O)[C@@H]2O)[C@H](O)[C@@H](O)[C@H]1O [Raffinose] | – | – | — (No inhibition at 100 mM of mono- or oligosaccharides) | –
C[C@H](O)[C@@H](O)[C@@H](O)[C@H](O)C=O [L-Fucose] | – | – | — (No inhibition at 100 mM of mono- or oligosaccharides) | –
Transferrin: transferrin (human), glycoprotein | inhibition occurred | 2000 µg/mL | – | –
O=C[C@H](O)[C@@H](O)[C@@H](O)[C@H](O)CO [D-Galactose] | – | – | — (No inhibition at 100 mM of mono- or oligosaccharides) | –
Fetuin: fetuin (type III, calf serum) (protein) IPLDPVAGYKEPACDDPDTEQAALAAVDYINKHLPRGYKHTLNQIDSVKVWPRRPTGEVYDIEIDTLETTCHVLDPTPLANCSVRQQTQHAVEGDCDIHVLKQDGQFSVLFTKCDSSPDSAEDVRKLCPDCPLLAPLNDSRVVHAVEVALATFNAESNGSYLQLVEISRAQFVPLPVSVSVEFAVAATDCIAKEVVDPTKCNLLAEKQYGFCKGSVIQKALGGEDVRVTCTLFQTQPVIPQPQPDGAEAEAPSAVPDAAGPTPSAAGPPVASVVVGPSVVAVPLPLHRAHYDLRHTFSGVASVESSSGEAFHVGKTPIVGQPSIPGGPVRLCPGRIRYFKI | inhibition occurred | 1000 µg/mL | – | –
Asialofetuin: asialo form of fetuin (protein) IPLDPVAGYKEPACDDPDTEQAALAAVDYINKHLPRGYKHTLNQIDSVKVWPRRPTGEVYDIEIDTLETTCHVLDPTPLANCSVRQQTQHAVEGDCDIHVLKQDGQFSVLFTKCDSSPDSAEDVRKLCPDCPLLAPLNDSRVVHAVEVALATFNAESNGSYLQLVEISRAQFVPLPVSVSVEFAVAATDCIAKEVVDPTKCNLLAEKQYGFCKGSVIQKALGGEDVRVTCTLFQTQPVIPQPQPDGAEAEAPSAVPDAAGPTPSAAGPPVASVVVGPSVVAVPLPLHRAHYDLRHTFSGVASVESSSGEAFHVGKTPIVGQPSIPGGPVRLCPGRIRYFKI | inhibition occurred | 500 µg/mL | – | –
UEA-I: Ulex europaeus-derived lectin (protein) SDDLSFKFKNFSQNGKDLSFQGDASVIETGVLQLNKVGNNLPDETGGIARYIAPIHIWNCNTGEVASFITSFSFFMETSANPKAATDGLTFFLAPPDSPLRRAGGYFGLFEDTKDNDSSYQTVAVEFDTIGSPVNFDDPGFPHIGIDVNRVKSINAERWNKRYGLNNVANVEIIYEASSKTLTASLTYPSDQTSISVTSIVDLKEILPEWVSVGFSGGTYIGRQATHEVLNWYFTSNLINTNS | – | – | – | Binding to chicken egg yolk antibody (in words) [2]: binding to chicken egg yolk antibody (chicken IgY antibodies) occurs
